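Growth conditions: 96-well plates. Treatment: test compound, 48 hours, 5 concentrations. Analysis: linear interpolation between bracketing concentrations; unreached endpoints set to highest concentration. GI50 = concentration required for 50% inhibition of growth. TGI marks complete inhibition of growth.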
What follows are compounds tested on SK-MEL-2 melanoma (assay: inhibition of tumour cell growth, NCI panel, 48 h).

Structure (SMILES) | TGI [µM]
CCOC(=O)c1csc(NC(=O)CCCC#N)n1 | > 100
COc1ccc(CCCCl)c(C2=NCCc3ccccc32)c1 | > 100
C=C1CC=CC(C)(C)C1C/C=C(\C)C(O)CBr (stereo not drawn) | > 100
CCOC(=O)C(C)NC(=O)N(C)C12CC3CC(CC(C3)C1)C2 (stereo not drawn) | > 316
CCc1cc(=O)n(/C(C)=C/c2ccccc2)n1C | > 100
Nc1n[nH]c2ccccc12 | > 100

The compounds below were run on ACHN renal (assay: inhibition of tumour cell growth, NCI panel, 48 h).

Structure (SMILES) | TGI [µM] | GI50 [µM]
CC(O)(C(=O)N(O)c1ccc(Cl)cc1)c1ccc(Cl)cc1 (stereo not drawn) | 62.3 | –
CCOP(=O)(OCC)c1cc(-c2ccccc2)ccc1N | > 100 | –
CC1(C)[C@@H]2C[C@H]1c1cnc(-c3ccccn3)cc1[C@H]2C(O)[C@@H]1c2cc(-c3ccccn3)ncc2[C@H]2C[C@@H]1C2(C)C (stereo partly drawn) | 1.54 | –
CC1(C)OC(CCO)CN1C(=O)OCc1ccccc1 (stereo not drawn) | > 100 | –
COc1ccc(N2C(=O)C3c4[nH]c5ccccc5c4C4C(C)CCCC4C3C2=O)cc1 (stereo not drawn) | > 100 | –
CCOC(=O)C1=C(C)NC(=O)N([N+](=O)[O-])C1c1ccccc1C(F)(F)F (stereo not drawn) | > 100 | –
O=c1c(Cc2ccccc2)c(-c2ccccc2)[nH]n1C1=NCCN1 | > 100 | –
Brc1ccc2c(c1)-c1nc3c(cc1CC2)CCc1ccc(Br)cc1-3 | > 100 | –
CCOC(=O)Cc1nn2c(=O)cc(C)nc2s1 | > 100 | –
COP(=O)(CC(=O)C1OC(OCc2ccccc2)C(OCc2ccccc2)C(OCc2ccccc2)C1OCc1ccccc1)OC (stereo not drawn) | 23.2 | –
CN1c2ccccc2C(=O)NC12CCN(CC1COc3ccccc3O1)CC2 (stereo not drawn) | > 100 | –
CCOC1NC(=O)c2ccccc21 (stereo not drawn) | > 100 | –
CCN(C(=O)N[C@H](C(=O)N[C@@H](C)C(=O)OC)C(C)C)c1ccccc1 | > 100 | –
Cc1cn(C2CC(OC(c3ccccc3)(c3ccccc3)c3ccccc3)C(COC(c3ccccc3)(c3ccccc3)c3ccccc3)O2)c(=O)[nH]c1=O (stereo not drawn) | > 100 | –
CCOC(=O)c1ccc(C(=O)/C(C(=O)OC(C)(C)C)=C2\CCCN2C)n1C | > 100 | –
C(=N/Nc1ccc(-c2nc3ccccc3[nH]2)cc1)/c1c(-c2ccccc2)[nH]c2ccccc12 | > 100 | –
COc1cc(/C=C/c2cc(=O)cc(/C=C/c3ccc(O)c(OC)c3)o2)ccc1O | > 100 | –
NNC(=O)c1cccc2c1Oc1ccccc1S2 | > 100 | –
COc1cc2c(cc1O)CC[n+]1cc3c(OC)c(OC)ccc3cc1-2 | > 100 | –
NS(=O)(=O)c1nnc(NSc2ccc([N+](=O)[O-])cc2)s1 | > 100 | –
Nc1nc(Nc2ccc(OCc3cccc(F)c3)cc2)c2c(n1)[nH]c1ccc(O)cc12 | 12 | 3.16
CCCC[C@@H]1CCN2C[C@@H](O)[C@@H](O)[C@H]2[C@@H]1O | > 100 | –
Cc1cc(C)nc(NS(=O)(=O)c2ccc(Nc3c4ccccc4nc4c(C(=O)NCCO)cccc34)cc2)n1 | > 100 | –
CCOC(=O)c1csc(NC(=O)CCCC#N)n1 | > 100 | –
COc1ccc(CCCCl)c(C2=NCCc3ccccc32)c1 | > 100 | –
O=C(CN=C(CN(c1ccccc1)c1ccccc1)Oc1c(Cl)cc(Cl)cc1Cl)n1cnc2ccccc21 | > 100 | –
C=C1CC=CC(C)(C)C1C/C=C(\C)C(O)CBr (stereo not drawn) | > 100 | –
CCc1cc(=O)n(/C(C)=C/c2ccccc2)n1C | > 100 | –
Nc1n[nH]c2ccccc12 | > 100 | –
N/C(CSCCSC/C(N)=N/O)=N\O | > 100 | –

These compounds were tested on TK-10 renal (assay: inhibition of tumour cell growth, NCI panel, 48 h).

Structure (SMILES) | TGI [µM] | GI50 [µM]
CC(O)(C(=O)N(O)c1ccc(Cl)cc1)c1ccc(Cl)cc1 (stereo not drawn) | > 100 | –
CCOP(=O)(OCC)c1cc(-c2ccccc2)ccc1N | > 100 | –
CC1(C)[C@@H]2C[C@H]1c1cnc(-c3ccccn3)cc1[C@H]2C(O)[C@@H]1c2cc(-c3ccccn3)ncc2[C@H]2C[C@@H]1C2(C)C (stereo partly drawn) | > 100 | –
CC1(C)OC(CCO)CN1C(=O)OCc1ccccc1 (stereo not drawn) | > 100 | –
COc1ccc(N2C(=O)C3c4[nH]c5ccccc5c4C4C(C)CCCC4C3C2=O)cc1 (stereo not drawn) | > 100 | –
CCOC(=O)C1=C(C)NC(=O)N([N+](=O)[O-])C1c1ccccc1C(F)(F)F (stereo not drawn) | > 100 | –
O=c1c(Cc2ccccc2)c(-c2ccccc2)[nH]n1C1=NCCN1 | > 100 | –
Brc1ccc2c(c1)-c1nc3c(cc1CC2)CCc1ccc(Br)cc1-3 | > 100 | –
CCOC(=O)Cc1nn2c(=O)cc(C)nc2s1 | > 100 | –
COP(=O)(CC(=O)C1OC(OCc2ccccc2)C(OCc2ccccc2)C(OCc2ccccc2)C1OCc1ccccc1)OC (stereo not drawn) | 79.8 | –
CN1c2ccccc2C(=O)NC12CCN(CC1COc3ccccc3O1)CC2 (stereo not drawn) | > 100 | –
CCOC1NC(=O)c2ccccc21 (stereo not drawn) | > 100 | –
CCN(C(=O)N[C@H](C(=O)N[C@@H](C)C(=O)OC)C(C)C)c1ccccc1 | 98.6 | –
Cc1cn(C2CC(OC(c3ccccc3)(c3ccccc3)c3ccccc3)C(COC(c3ccccc3)(c3ccccc3)c3ccccc3)O2)c(=O)[nH]c1=O (stereo not drawn) | > 100 | –
CCOC(=O)c1ccc(C(=O)/C(C(=O)OC(C)(C)C)=C2\CCCN2C)n1C | > 100 | –
O=[N+]([O-])c1ccc2nc3c(nc2c1)-c1c2ccccc2cc2cccc-3c12 | > 100 | –
C(=N/Nc1ccc(-c2nc3ccccc3[nH]2)cc1)/c1c(-c2ccccc2)[nH]c2ccccc12 | > 100 | –
COc1cc(/C=C/c2cc(=O)cc(/C=C/c3ccc(O)c(OC)c3)o2)ccc1O | > 100 | –
NNC(=O)c1cccc2c1Oc1ccccc1S2 | > 100 | –
COc1cc2c(cc1O)CC[n+]1cc3c(OC)c(OC)ccc3cc1-2 | > 100 | –
NS(=O)(=O)c1nnc(NSc2ccc([N+](=O)[O-])cc2)s1 | > 100 | –
Nc1nc(Nc2ccc(OCc3cccc(F)c3)cc2)c2c(n1)[nH]c1ccc(O)cc12 | 16.4 | 3.49
CCCC[C@@H]1CCN2C[C@@H](O)[C@@H](O)[C@H]2[C@@H]1O | > 100 | –
CCOC(=O)c1csc(NC(=O)CCCC#N)n1 | > 100 | –
COc1ccc(CCCCl)c(C2=NCCc3ccccc32)c1 | > 100 | –
O=C(CN=C(CN(c1ccccc1)c1ccccc1)Oc1c(Cl)cc(Cl)cc1Cl)n1cnc2ccccc21 | > 100 | –
C=C1CC=CC(C)(C)C1C/C=C(\C)C(O)CBr (stereo not drawn) | > 100 | –
CCc1cc(=O)n(/C(C)=C/c2ccccc2)n1C | > 100 | –
Nc1n[nH]c2ccccc12 | > 100 | –
N/C(CSCCSC/C(N)=N/O)=N\O | > 100 | –

These compounds were tested on CCRF-CEM leukemia (assay: inhibition of tumour cell growth, NCI panel, 48 h).

Structure (SMILES) | TGI [µM]
CC(O)(C(=O)N(O)c1ccc(Cl)cc1)c1ccc(Cl)cc1 (stereo not drawn) | 34.4
CCOP(=O)(OCC)c1cc(-c2ccccc2)ccc1N | > 100
CC1(C)OC(CCO)CN1C(=O)OCc1ccccc1 (stereo not drawn) | > 100
COc1ccc(N2C(=O)C3c4[nH]c5ccccc5c4C4C(C)CCCC4C3C2=O)cc1 (stereo not drawn) | > 100
CCOC(=O)C1=C(C)NC(=O)N([N+](=O)[O-])C1c1ccccc1C(F)(F)F (stereo not drawn) | > 100
O=c1c(Cc2ccccc2)c(-c2ccccc2)[nH]n1C1=NCCN1 | > 100
Brc1ccc2c(c1)-c1nc3c(cc1CC2)CCc1ccc(Br)cc1-3 | > 100
CCOC(=O)Cc1nn2c(=O)cc(C)nc2s1 | > 100
COP(=O)(CC(=O)C1OC(OCc2ccccc2)C(OCc2ccccc2)C(OCc2ccccc2)C1OCc1ccccc1)OC (stereo not drawn) | > 100
CN1c2ccccc2C(=O)NC12CCN(CC1COc3ccccc3O1)CC2 (stereo not drawn) | > 100

Source: PubChem BioAssay (NCI)
